Here are results for five molecules from patent US11130793B2, “GLP-1/GLP-2 dual agonists” (Zealand Pharma A/S, priority 2016, dated 2021).

Square brackets hold non-standard residues; d marks the D form. Peptide text beside a SMILES is read from it. Aib = CC(C)(N)C(=O)O

The target in one assay is T1, human GLP-1 receptor (Homo sapiens, UniProt P43220).
T1 construct: expressed in transfected cells
Nature of the assay: GLP-1 receptor potency assay (cAMP AlphaScreen, HEK293 cells stably expressing GLP-1R). The format is cell-based. The settings on record: cAMP response, HEK293 cells expressing human GLP-1R; read-out: EC50 GLP-1. The source says: (§1) One useful in vitro assay for measuring GLP-1 and GLP-2 receptor activity is quantitation of cAMP, i.e. 3′-5′-cyclic adenosine monophosphate, which is a second messenger essential in many biological processes, and one of the most ubiquitous mechanisms for regulating cellular functions. […] Test compounds eliciting an increase in the intracellular level of cAMP can be tested in these assays, and the response normalized relative to a positive and negative control (vehicle) to calculate the EC50 and maximal response from the concentration response curve using the 4-parameter logistic (4PL) nonlinear model for curve fitting.
The cDNA encoding the human glucagon-like peptide 1 receptor (GLP-1R) (primary accession number P43220) was cloned from the cDNA BC112126 (MGC:138331/IMAGE:8327594). The DNA encoding the GLP-1-R was amplified by PCR using primers encoding terminal restriction sites for subcloning. The 5′-end primers additionally encoded a near Kozak consensus sequence to ensure efficient translation. […] The PCR products encoding the GLP-1-R were subcloned into a mammalian expression vector containing a neomycin (G418) resistance marker. The mammalian expression vectors encoding the GLP-1-R were transfected into HEK293 cells by a standard calcium phosphate transfection method. 48 hours post-transfection, cells were seeded for limited dilution cloning and selected with 1 mg/ml G418 in the culture medium. Following 3 weeks in G418 selection clones were picked and tested in a functional GLP-1 receptor potency assay as described below.
(§2) The cAMP AlphaScreen assay from Perkin Elmer was used to quantitate the cAMP response to activation of the GLP1 and GLP2 receptor, respectively. […] Data from test compounds eliciting an increase in the intracellular level of cAMP were normalized relative to the positive and negative control (vehicle) to calculate the EC50 and maximal response from the concentration response curve.

A further assay concerns the target T2, human GLP-2 receptor (Homo sapiens, UniProt O95838, D470N).
T2 sequence (O95838 1-553 D470N): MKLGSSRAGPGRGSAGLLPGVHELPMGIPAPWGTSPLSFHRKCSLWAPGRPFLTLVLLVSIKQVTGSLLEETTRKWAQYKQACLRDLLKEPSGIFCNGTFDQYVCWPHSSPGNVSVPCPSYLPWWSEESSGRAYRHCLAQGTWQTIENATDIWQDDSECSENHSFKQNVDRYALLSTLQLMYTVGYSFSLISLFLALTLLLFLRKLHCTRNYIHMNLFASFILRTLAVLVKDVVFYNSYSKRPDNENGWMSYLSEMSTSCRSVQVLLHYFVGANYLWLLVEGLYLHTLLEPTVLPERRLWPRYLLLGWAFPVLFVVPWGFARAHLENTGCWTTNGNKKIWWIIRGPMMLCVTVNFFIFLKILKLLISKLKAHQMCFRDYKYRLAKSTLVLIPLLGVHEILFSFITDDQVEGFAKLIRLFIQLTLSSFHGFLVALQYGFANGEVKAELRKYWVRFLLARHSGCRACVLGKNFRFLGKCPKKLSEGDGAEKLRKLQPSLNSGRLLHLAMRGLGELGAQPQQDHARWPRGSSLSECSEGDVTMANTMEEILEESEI
Put plainly: GLP-2 receptor potency assay (cAMP AlphaScreen, HEK293 cells stably expressing GLP-2R). The format is cell-based. The settings on record: cAMP response, HEK293 cells expressing human GLP-2R.
Text: as §1
The hGLP2-R was purchased from MRC-geneservice, Babraham, Cambridge as an Image clone: 5363415 (11924-I17). For subcloning into a mammalian expression vector, primers for subcloning were obtained from DNA-Technology, Risskov, Denmark. The 5′ and 3′ primers used for the PCR reaction include terminal restriction sites for cloning and the context of the 5′ primer is modified to a Kozak consensus without changing the sequence of the product encoded by the ORF. A standard PCR reaction was run using Image clone 5363415 (11924-117) as a template with the above mentioned primers and Polymerase Herculase II Fusion in a total vol. of 50 μl. The generated PCR product was purified using GFX PCR and Gel band purification kit, digested with restriction enzymes and cloned into the mammalian expression vector using Rapid DNA Ligation Kit. Ligation reaction was transformed to XL10 Gold Ultracompetent cells and colonies were picked for DNA production using Endofree Plasmid maxi kit. Subsequent sequence analysis was conducted by MWG Eurofins, Germany.
HEK293 cells were transfected using the Lipofectamine PLUS transfection method. The day before transfection, HEK293 cells were seeded in two T75 flasks at a density of 2×10^6 cells/T75 flask in cell culturing medium without antibiotics. On the day of transfection, cells were washed with 1×DPBS and medium was replaced with Optimem to a volume of 5 mL/T75 flask before addition of Lipofectamine-plasmid complexes were added gently and drop wise to the cells in T75 flasks and replaced with growth medium after 3 hours and again to growth medium supplemented with 500 μg/mL G418 after 24 hours. Following 4 weeks in G418 selection, clones were picked and tested in a functional GLP-2 receptor potency assay as described below.
as §2
For orientation: Alpha assays give light when donor and acceptor beads are brought close together.

As a reminder, the EC50 is the concentration needed to bring the measured effect to its halfway point.

T1 sequence (P43220 24-463): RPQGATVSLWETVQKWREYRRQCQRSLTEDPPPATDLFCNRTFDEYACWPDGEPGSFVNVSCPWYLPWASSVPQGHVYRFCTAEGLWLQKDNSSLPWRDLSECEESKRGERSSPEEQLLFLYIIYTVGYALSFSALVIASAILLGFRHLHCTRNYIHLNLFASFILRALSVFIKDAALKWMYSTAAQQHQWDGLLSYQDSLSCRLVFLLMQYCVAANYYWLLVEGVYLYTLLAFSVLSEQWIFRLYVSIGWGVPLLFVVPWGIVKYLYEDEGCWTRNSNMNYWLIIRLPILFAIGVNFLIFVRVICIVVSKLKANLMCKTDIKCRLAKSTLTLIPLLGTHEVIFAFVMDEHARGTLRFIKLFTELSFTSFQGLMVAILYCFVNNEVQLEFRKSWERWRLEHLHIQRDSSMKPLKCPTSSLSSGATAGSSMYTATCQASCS

In the case of `CC[C@H](C)[C@H](NC(=O)[C@H](Cc1ccccc1)NC(=O)[C@H](CC(=O)O)NC(=O)[C@H](CCCNC(=N)N)NC(=O)[C@H](C)NC(=O)[C@H](C)NC(=O)[C@H](CCC(N)=O)NC(=O)[C@H](CCC(=O)O)NC(=O)[C@H](CC(=O)O)NC(=O)[C@H](CC(C)C)NC(=O)[C@@H](NC(=O)[C@@H](NC(=O)[C@H](C)NC(=O)[C@H](CC(C)C)NC(=O)[C@H](CCC(=O)O)NC(=O)[C@H](CO)NC(=O)[C@@H](NC(=O)[C@H](Cc1ccccc1)NC(=O)[C@@H](NC(=O)CNC(=O)[C@H](CCC(=O)O)NC(=O)C(C)(C)NC(=O)[C@@H](N)Cc1c[nH]cn1)[C@@H](C)O)[C@@H](C)O)[C@@H](C)O)[C@@H](C)CC)C(=O)N[C@@H](C)C(=O)N[C@@H](Cc1c[nH]c2ccccc12)C(=O)N[C@@H](CC(C)C)C(=O)N[C@H](C(=O)N[C@@H](CCCNC(=N)N)C(=O)N[C@@H](Cc1c[nH]cn1)C(=O)N[C@@H](CCCCN)C(=O)N[C@H](C(=O)N[C@H](C(=O)N[C@@H](CC(=O)O)C(=O)O)[C@@H](C)O)[C@@H](C)CC)[C@@H](C)CC` [Compound 17] (H-H[Aib]EGTFTSELATILDEQAARDFIAWLIRHKITD-OH), the 50% effective concentration (EC50) is 0.006 nM at human GLP-1 receptor and 0.066 nM on human GLP-2 receptor.

As to `CC[C@H](C)[C@H](NC(=O)[C@H](Cc1ccccc1)NC(=O)[C@H](CC(=O)O)NC(=O)[C@H](CCCNC(=N)N)NC(=O)[C@H](C)NC(=O)[C@H](C)NC(=O)[C@H](CCC(N)=O)NC(=O)[C@H](CCC(=O)O)NC(=O)[C@H](CC(=O)O)NC(=O)[C@H](CC(C)C)NC(=O)[C@@H](NC(=O)[C@@H](NC(=O)[C@H](C)NC(=O)[C@H](CC(C)C)NC(=O)[C@H](CCC(=O)O)NC(=O)[C@H](CO)NC(=O)[C@@H](NC(=O)[C@H](Cc1ccccc1)NC(=O)[C@@H](NC(=O)CNC(=O)[C@H](CCC(=O)O)NC(=O)C(C)(C)NC(=O)[C@@H](N)Cc1c[nH]cn1)[C@@H](C)O)[C@@H](C)O)[C@@H](C)O)[C@@H](C)CC)C(=O)N[C@@H](C)C(=O)N[C@@H](Cc1c[nH]c2ccccc12)C(=O)N[C@@H](CC(C)C)C(=O)N[C@H](C(=O)N[C@@H](CO)C(=O)N[C@@H](Cc1c[nH]cn1)C(=O)N[C@@H](CCCCN)C(=O)N[C@H](C(=O)N[C@H](C(=O)N[C@@H](CC(=O)O)C(=O)O)[C@@H](C)O)[C@@H](C)CC)[C@@H](C)CC` [Compound 18] (H-H[Aib]EGTFTSELATILDEQAARDFIAWLISHKITD-OH), the EC50 is 0.006 nM on human GLP-1 receptor and 0.054 nM on human GLP-2 receptor.

`CC[C@H](C)[C@H](NC(=O)[C@H](CC(C)C)NC(=O)[C@H](Cc1c[nH]c2ccccc12)NC(=O)[C@H](C)NC(=O)[C@@H](NC(=O)[C@H](Cc1ccccc1)NC(=O)[C@H](CC(=O)O)NC(=O)[C@H](CCCNC(=N)N)NC(=O)[C@H](C)NC(=O)[C@H](C)NC(=O)[C@H](CCC(N)=O)NC(=O)[C@H](CCC(=O)O)NC(=O)[C@H](CC(=O)O)NC(=O)[C@H](CC(C)C)NC(=O)[C@@H](NC(=O)[C@@H](NC(=O)[C@H](C)NC(=O)[C@H](CC(C)C)NC(=O)[C@H](CCC(=O)O)NC(=O)[C@H](CO)NC(=O)[C@@H](NC(=O)[C@H](Cc1ccccc1)NC(=O)[C@@H](NC(=O)CNC(=O)[C@H](CCC(=O)O)NC(=O)C(C)(C)NC(=O)[C@@H](N)Cc1c[nH]cn1)[C@@H](C)O)[C@@H](C)O)[C@@H](C)O)[C@@H](C)CC)[C@@H](C)CC)C(=O)N[C@@H](C)C(=O)N[C@@H](CCC(N)=O)C(=O)N[C@@H](CCCCN)C(=O)N[C@H](C(=O)N[C@H](C(=O)N[C@@H](CC(=O)O)C(=O)O)[C@@H](C)O)[C@@H](C)CC` [Compound 19] (H-H[Aib]EGTFTSELATILDEQAARDFIAWLIAQKITD-OH): the EC50 on human GLP-1 receptor amounted to 0.005 nM; at human GLP-2 receptor, 0.15 nM.

With `CC[C@H](C)[C@H](NC(=O)[C@H](CC(C)C)NC(=O)[C@H](Cc1c[nH]c2ccccc12)NC(=O)[C@H](C)NC(=O)[C@@H](NC(=O)[C@H](Cc1ccccc1)NC(=O)[C@H](CC(=O)O)NC(=O)[C@H](CCCNC(=N)N)NC(=O)[C@H](C)NC(=O)[C@H](C)NC(=O)[C@H](CCC(N)=O)NC(=O)[C@H](CCC(=O)O)NC(=O)[C@H](CC(=O)O)NC(=O)[C@H](CC(C)C)NC(=O)[C@@H](NC(=O)[C@@H](NC(=O)[C@H](C)NC(=O)[C@H](CC(C)C)NC(=O)[C@H](CCC(=O)O)NC(=O)[C@H](CO)NC(=O)[C@@H](NC(=O)[C@H](Cc1ccccc1)NC(=O)[C@@H](NC(=O)CNC(=O)[C@H](CCC(=O)O)NC(=O)C(C)(C)NC(=O)[C@@H](N)Cc1c[nH]cn1)[C@@H](C)O)[C@@H](C)O)[C@@H](C)O)[C@@H](C)CC)[C@@H](C)CC)C(=O)N[C@@H](C)C(=O)N[C@@H](Cc1ccc(O)cc1)C(=O)N[C@@H](CCCCN)C(=O)N[C@H](C(=O)N[C@H](C(=O)N[C@@H](CC(=O)O)C(=O)O)[C@@H](C)O)[C@@H](C)CC` [Compound 20] (H-H[Aib]EGTFTSELATILDEQAARDFIAWLIAYKITD-OH), the EC50 came to 0.012 nM at human GLP-1 receptor and 0.26 nM on human GLP-2 receptor.

As to `CC[C@H](C)[C@H](NC(=O)[C@H](Cc1ccccc1)NC(=O)[C@H](CC(=O)O)NC(=O)[C@H](CCCNC(=N)N)NC(=O)[C@H](C)NC(=O)[C@H](C)NC(=O)[C@H](CCC(N)=O)NC(=O)[C@H](CCC(=O)O)NC(=O)[C@H](CC(=O)O)NC(=O)[C@H](CC(C)C)NC(=O)[C@@H](NC(=O)[C@@H](NC(=O)[C@H](C)NC(=O)[C@H](CC(C)C)NC(=O)[C@H](CCC(=O)O)NC(=O)[C@H](CO)NC(=O)[C@@H](NC(=O)[C@H](Cc1ccccc1)NC(=O)[C@@H](NC(=O)CNC(=O)[C@H](CCC(=O)O)NC(=O)C(C)(C)NC(=O)[C@@H](N)Cc1c[nH]cn1)[C@@H](C)O)[C@@H](C)O)[C@@H](C)O)[C@@H](C)CC)C(=O)N[C@@H](C)C(=O)N[C@@H](Cc1c[nH]c2ccccc12)C(=O)N[C@@H](CC(C)C)C(=O)N[C@@H](Cc1c[nH]cn1)C(=O)N[C@@H](CCC(N)=O)C(=O)N[C@@H](Cc1c[nH]cn1)C(=O)N[C@@H](CCCCN)C(=O)N[C@H](C(=O)N[C@H](C(=O)N[C@@H](CC(=O)O)C(=O)O)[C@@H](C)O)[C@@H](C)CC` [Compound 21] (H-H[Aib]EGTFTSELATILDEQAARDFIAWLHQHKITD-OH), the EC50 at human GLP-1 receptor came out at 0.049 nM; on human GLP-2 receptor it was 0.11 nM.
